Key:
[1] = tested on: Wistar rats with spinal cord injury; assay: Spinal cord injury model (20 g compression on lower thoracic cord for 20 minutes); format: in vivo, rat; conditions: for paralysis or paraplegia of both lower limbs: Solu-Medrol intravenous 30 mg/kg on the same schedule, 30 mg/kg
Source text: The present inventors have investigated the effects of repetitive or continuous intravenous administration of ginsenoside Rb1 using rats with spinal cord injury and the effects were compared with those of repetitive or continuous intravenous administration of a crude saponin fraction of medicinal ginseng. If pressure is loaded on certain spinal segments such as the lower thoracic cord, not only nerve cells (neurons) in the gray matter of the same region but also fiber tracts or pathways in the white matter of the same region are damaged. The damages to the fiber tracts or pathways of the white matter are further developed to the distal portions (caudal portions) as well as causing the secondary degeneration of the origins of the fiber tract or pathways, namely the upper nerve cell bodies (i.e. origins) which project fibers (nerve processes) to the fiber tracts or pathways. As a result, the damages to the fiber tracts or pathways of the white matter in the lower thoracic cord, which received compression loading, induce the secondary degeneration of the origins (nerve cell bodies) sending fibers (also termed nerve processes or axons) to the fiber tracts or pathways as well as the secondary degeneration of fiber tracts located distal to the lower thoracic cord (i.e. lumbar cord and sacral cord) to cause paraplegia of both limbs. Further, since the innervation from the brain regions proximal to the lumbar cord and sacral cord is cut off due to damage to the lower thoracic cord, the secondary degeneration of nerve cells in the gray matters of the lumbar cord and sacral cord is further induced, as a result, paraplegia of the limbs can not be recovered. For that model of the spinal cord injury, the present inventors have used male Wistar rats (body weight about 300 g) loaded with 20 g of compression on the lower thoracic cord for 20 minutes.
Under inhalation anesthesia by a mixture of nitrous oxide and halothane, the rats were loaded with 20 g of compression on the lower thoracic cord for 20 minutes. After more than 30 minutes passed, ginsenoside Rb1 dissolved in physiological saline was injected once into the left femoral vein (12 μg or 60 μg), thereafter continuous or repetitive intravenous administration of ginsenoside Rb1 was performed for 7 days by using an Alza osmotic minipump (12 μg/day or 60 μ/day). Control animals and sham-operated animals were administered with the same amount of physiological saline (vehicle) alone. The open field locomotor scores [Basso, Bettie and Bresnakan (BBB) scores] were measured in each animal before loading spinal cord injury, on the day of spinal cord injury and from 1st day to 7th day after the spinal cord injury for use as an index of motor functions (Basso D. M. et al., J. Neurotrauma, 13, 343-359, 1996). BBB scores of the sham-operated rats (normal rats) were 20-21.
Under inhalation anesthesia by a mixture of nitrous oxide and halothane, the rats were loaded with 20 g of compression on the lower thoracic cord for 20 minutes. More than 30 minutes later, the crude saponin fraction dissolved in physiological saline was infused once into the left femoral vein (870 μg), thereafter continuous intravenous administration of the crude saponin fraction was performed for 7 days by using an Alza osmotic minipump (870 μg/day). Control animals with spinal cord injuries were administered with the same amount of physiological saline (vehicle) alone. […] These figures are photographs in place of drawings.
Under inhalation anesthesia by a mixture of nitrous oxide and halothane, wistar rats (body weight about 300 g) were loaded with 20 g of compression on the lower thoracic cord for 20 minutes. After they were awakened from anesthesia, the rats with paraplegia in both hindlimbs were allowed to stay for 1 hour and 40 minutes in the cage. […]

[2] = tested on: SH-SP rats with MCA permanent occlusion; assay: TTC staining of cerebral infarct lesion 24 hours after MCA permanent occlusion; format: in vivo, rat

Structure (SMILES)	experimental animals died within 7 days after spinal cord injuries ([1]; Solu-Medrol 30 mg/kg, 4 out of 10 rats)	paralysis or paraplegia of both lower limbs [1]	paralysis or paraplegia of both lower limbs ([1]; listed as Solu-Medol)	healing of the operative dorsal wounds / ill effects ([1]; rat, in vivo)	cerebral infarct lesion (TTC staining) ([2]; dihydroginsenoside Rb1 intravenous 6 μg/day for 24 hours after MCA permanent occlusion)	volume of cerebral infarct lesion relative to non-administered group ([2]; intravenous low doses)
C[C@H]1C[C@@H]2[C@H]([C@@H](O)C[C@@]3(C)[C@H]2CC[C@]3(O)C(=O)COC(=O)CCC(=O)[O-])[C@@]2(C)C=CC(=O)C=C12.[Na+] [reference compound]	about 40%	no significant ameliorating effects	could not ameliorate	obviously delayed	–	–
CC(C)CCC[C@](C)(O[C@@H]1O[C@H](CO[C@@H]2O[C@H](CO)[C@@H](O)[C@H](O)[C@H]2O)[C@@H](O)[C@H](O)[C@H]1O)[C@H]1CC[C@]2(C)[C@@H]1[C@H](O)C[C@@H]1[C@@]3(C)CC[C@H](O[C@@H]4O[C@H](CO)[C@@H](O)[C@H](O)[C@H]4O[C@@H]4O[C@H](CO)[C@@H](O)[C@H](O)[C@H]4O)C(C)(C)[C@@H]3CC[C@]12C [dihydroginsenoside Rb1]	–	–	–	–	markedly reduced	about ¼

Reference: US7235267B1, “Brain cell or nerve cell-protecting agents comprising medicinal ginseng” (priority 1999, dated 2007)
